Laboratory results: patent publication US20210179578A1, “OX1 ANTAGONISTS” (Heptares Therapeutics Limited, priority 2017, published 2021)

Molecular target: T1, human OX1 receptor (Homo sapiens, UniProt O43613)
T1 sequence (O43613 1-425): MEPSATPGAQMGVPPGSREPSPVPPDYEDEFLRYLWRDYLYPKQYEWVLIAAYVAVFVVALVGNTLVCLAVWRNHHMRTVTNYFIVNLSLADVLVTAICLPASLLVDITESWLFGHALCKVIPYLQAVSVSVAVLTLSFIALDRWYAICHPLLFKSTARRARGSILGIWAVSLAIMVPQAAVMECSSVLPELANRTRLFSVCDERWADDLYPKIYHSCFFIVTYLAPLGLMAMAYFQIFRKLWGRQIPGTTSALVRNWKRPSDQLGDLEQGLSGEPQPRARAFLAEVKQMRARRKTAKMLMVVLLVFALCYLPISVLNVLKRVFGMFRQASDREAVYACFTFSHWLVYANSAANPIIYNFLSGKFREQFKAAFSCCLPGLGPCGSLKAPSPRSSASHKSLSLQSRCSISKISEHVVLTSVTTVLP
Assay: [3H]-radioligand binding assay, OX1
Design: made in house; host or cells: SF21 insect cells (baculovirus; P0 virus made in SF9)
Conditions: [3H]-radioligand binding, human OX1 membranes; read-out: pKi average OX1 (converted)
Text: Cloning, Baculovirus generation, large-scale infection of SF21 cells and membrane preparation. Human OX1 or OX2 receptor were cloned into Invitrogen's (ThermoFisher Scientific, UK) Bac-to-Bac Baculovirus Expression System. P0 baculovirus was generated by transfecting SF9 cells with bacmid DNA using Cellfectin® II transfection reagent (ThermoFisher Scientific, UK, Catalog number 10362-100). Following P0 generation P1 virus was then generated ready for large scale infection and membrane preparation. SF21 cells were grown in expression medium ESF921 (Expression Systems, USA, catalog number 96-001-01) supplemented with 10% heat-inactivated FBS and 1% Pen/Strep and were infected at a cell density of 2.5×10^6 cells/mL and a multiplicity of infection of 1.0 for both human OX1R and OX2R. Incubation was carried out at over 48 h in a shaking incubator set at 27° C. The cell culture was then centrifuged at 2,500 rcf for 10 min at 4° C. The pellets were resuspended in cold PBS supplemented with Roche's Complete EDTA-free protease inhibitor cocktail tablets (Roche Applied Sciences, catalog number 05056489001), 1 mM PMSF and 1 mM EDTA. The resuspended cell paste was then centrifuged at 3,273 rcf for 12 min at 4° C. The supernatant was discarded and the pellet frozen at −80° C. The cell pellet from a 4 L culture was resuspended in buffer containing 50 mM HEPES pH 7.5, 150 mM NaCl, 8 Roche EDTA-Free protease inhibitor cocktail tablets and 1 mM PMSF. The suspension was left stirring at rt for 1 h and then homogenised for 90 s at 9,500 rpm using a VDI 25 (VWR, USA) homogeniser. The cells were then lysed using a Microfluidiser processor M-110L Pneumatic (Microfluidics, USA) at 60 PSI and membranes collected by ultracentrifugation at 204.7 k×g for 1 h. The supernatant was discarded and the pellet was resuspended and homogenised in 90 s at 9,500 rpm in 50 mL (25 mL for each 2 L culture) of buffer containing 50 mM Hepes pH 7.5, 150 mM NaCl, 3 Roche EDTA-free protease inhibitor cocktail tablets and 1 mM PMSF. The resulting membranes were then stored at −80° C.
[^3H]-radioligand binding assay. After thawing, membrane homogenates were resuspended in the binding buffer (8.5 mM HEPES, pH 7.4, 1.3 mM CaCl2, 1.2 mM MgSO4, 118 mM NaCl, 4.7 mM KCl, 4 mM NaHCO3, 1.2 mM KH2PO4, 11 mM glucose) to a final assay concentration of 6.4 μg (OX1) or 1.4 μg (OX2) protein per well. Saturation isotherms were determined by the addition of various concentrations (0-30 nM) of [^3H]-4-(2,6-difluoro-4-methoxybenzyl)-2-(5,6-dimethoxypyridin-3-yl)-2H-1,2,4-benzothiadiazin-3(4H)-one 1,1-dioxide (Christopher et al, MedChemComm., 2015, 6, 947-955) in a total reaction volume of 250 μL for 90 min at rt. At the end of the incubation, membranes were filtered onto a 96-well GF/B filter pre-incubated with 0.5% polyethylenimine, with a Tomtec cell harvester and washed 5 times with 0.5 mL distilled water. Non-specific binding (NSB) was measured in the presence of 3.33 μM [4-(5-chloro-1,3-benzoxazol-2-yl)-7-methyl-1,4-diazepan-1-yl][5-methyl-2-(2H-1,2,3-triazol-2-yl)phenyl]methanone (Wertz et al, Angew. Chem. Int. Ed., 2011, 50, 11511-11515). Radioactivity on the filter was counted (1 min) on a Microbeta radiometric plate counter (Perkin Elmer) after addition of 50 μL of scintillation fluid (LabLogic: Part #SG-BXX-14). […] IC50 values were derived from the inhibition curve and the equilibrium dissociation constant (Ki) values were calculated using the Cheng-Prusoff equation.

Going from `COc1ncc(N2CCc3c(F)cccc3N(Cc3c(F)cc(Br)cc3F)C2=O)cc1S(C)(=O)=O` [Example 14, 1-(4-bromo-2,6-difluorobenzyl)-6-fluoro-3-[6-methoxy-5-(methylsulfonyl)pyridin-3-yl]-1,3,4,5-tetrahydro-2H-1,3-benzodiazepin-2-one] to `COc1ncc(N2CCc3c(F)cccc3N(Cc3c(C)cc(Br)cc3F)C2=O)cc1S(C)(=O)=O` [Example 17, 1-(4-bromo-2-fluoro-6-methylbenzyl)-6-fluoro-3-[6-methoxy-5-(methylsulfonyl)pyridin-3-yl]-1,3,4,5-tetrahydro-2H-1,3-benzodiazepin-2-one], the Ki falls from 3.16 nM to 0.794 nM (4-fold).

First: COc1cc(F)c(CN2C(=O)N(c3cnc(OC)c(S(C)(=O)=O)c3)CCc3c(F)cccc32)c(F)c1F [Example 15, 6-fluoro-3-[6-methoxy-5-(methylsulfonyl)pyridin-3-yl]-1-(2,3,6-trifluoro-4-methoxybenzyl)-1,3,4,5-tetrahydro-2H-1,3-benzodiazepin-2-one]
Second: COc1cc(F)c(CN2C(=O)N(c3cnc(OC)c(S(C)(=O)=O)c3)CCc3c(F)cccc32)c(F)c1 [Example 16, 1-(2,6-difluoro-4-methoxybenzyl)-6-fluoro-3-[6-methoxy-5-(methylsulfonyl)pyridin-3-yl]-1,3,4,5-tetrahydro-2H-1,3-benzodiazepin-2-one]
The Ki of the first is 1.6-fold higher: 1.26 nM for the first, 0.794 nM for the second.

`COc1ncc(N2CCc3c(F)cccc3N(Cc3c(C)cc(F)cc3F)C2=O)cc1S(C)(=O)=O` [Example 18, 1-(2,4-difluoro-6-methylbenzyl)-6-fluoro-3-[6-methoxy-5-(methylsulfonyl)pyridin-3-yl]-1,3,4,5-tetrahydro-2H-1,3-benzodiazepin-2-one] and `Cc1ccc(N2CCc3c(F)cccc3N(Cc3c(F)cc(Br)cc3F)C2=O)cc1S(C)(=O)=O` [Example 27, 1-(4-bromo-2,6-difluorobenzyl)-6-fluoro-3-[4-methyl-3-(methylsulfonyl)phenyl]-1,3,4,5-tetrahydro-2H-1,3-benzodiazepin-2-one] are within 1.5-fold of each other in Ki: 1.26 nM for the first, 1.58 nM for the second.

`COc1nc(OC)c(C(C)(F)F)cc1N1CCc2c(F)cccc2N(Cc2c(F)cc(Br)cc2F)C1=O` [Example 23, 1-(4-bromo-2,6-difluorobenzyl)-3-[5-(1,1-difluoroethyl)-2,6-dimethoxypyridin-3-yl]-6-fluoro-1,3,4,5-tetrahydro-2H-1,3-benzodiazepin-2-one] and `COCc1cc(F)c(CN2C(=O)N(c3cc(C(C)(F)F)c(OC)nc3OC)CCc3c(F)cccc32)c(F)c1` [Example 24, 3-[5-(1,1-difluoroethyl)-2,6-dimethoxypyridin-3-yl]-1-[2,6-difluoro-4-(methoxymethyl)benzyl]-6-fluoro-1,3,4,5-tetrahydro-2H-1,3-benzodiazepin-2-one] are within 1.5-fold of each other in Ki: 1.26 nM for the first, 1 nM for the second.

`COc1cc(F)c(CN2C(=O)N(c3cc(S(C)(=O)=O)c(OC)nc3OC)CCc3c(F)cccc32)c(F)c1` [Example 25, 1-(2,6-difluoro-4-methoxybenzyl)-3-[2,6-dimethoxy-5-(methylsulfonyl)pyridin-3-yl]-6-fluoro-1,3,4,5-tetrahydro-2H-1,3-benzodiazepin-2-one] and `Cc1cc(C)c(S(C)(=O)=O)cc1N1CCc2c(F)cccc2N(Cc2c(F)cc(Br)cc2F)C1=O` [Example 31, 1-(4-bromo-2,6-difluorobenzyl)-3-[2,4-dimethyl-5-(methylsulfonyl)phenyl]-6-fluoro-1,3,4,5-tetrahydro-2H-1,3-benzodiazepin-2-one] are within 1.5-fold of each other in Ki: 1.58 nM for the first, 1.26 nM for the second.

Compared with `CSc1cc(N2CCc3c(F)cccc3N(Cc3c(F)cc(Br)cc3F)C2=O)ccc1C` [Example 26, 1-(4-bromo-2,6-difluorobenzyl)-6-fluoro-3-[4-methyl-3-(methylsulfanyl)phenyl]-1,3,4,5-tetrahydro-2H-1,3-benzodiazepin-2-one], `Cc1ncc(N2CCc3c(F)cccc3N(Cc3c(F)cc(Br)cc3F)C2=O)cc1C(C)(F)F` [Example 32, 1-(4-bromo-2,6-difluorobenzyl)-3-[5-(1,1-difluoroethyl)-6-methylpyridin-3-yl]-6-fluoro-1,3,4,5-tetrahydro-2H-1,3-benzodiazepin-2-one] is 2-fold lower in Ki: 1.26 nM for the first, 0.631 nM for the second.

`CCCc1cc(F)c(CN2C(=O)N(c3ccc(C)c(S(C)(=O)=O)c3)CCc3c(F)cccc32)c(F)c1` [Example 28, 1-(2,6-difluoro-4-propylbenzyl)-6-fluoro-3-[4-methyl-3-(methylsulfonyl)phenyl]-1,3,4,5-tetrahydro-2H-1,3-benzodiazepin-2-one] and `CCCc1cc(F)c(CN2C(=O)N(c3cnc(C)c(C(C)(F)F)c3)CCc3c(F)cccc32)c(F)c1` [Example 34, 3-[5-(1,1-difluoroethyl)-6-methylpyridin-3-yl]-1-(2,6-difluoro-4-propylbenzyl)-6-fluoro-1,3,4,5-tetrahydro-2H-1,3-benzodiazepin-2-one] are within 1.5-fold of each other in Ki: 2 nM for the first, 1.58 nM for the second.

`Cc1cc(C)c(S(C)(=O)=O)cc1N1CCc2ccccc2N(Cc2c(F)cc(Br)cc2F)C1=O` [Example 29, 1-(4-bromo-2,6-difluorobenzyl)-3-[2,4-dimethyl-5-(methylsulfonyl)phenyl]-1,3,4,5-tetrahydro-2H-1,3-benzodiazepin-2-one] and `Cc1cc(C)c(S(C)(=O)=O)cc1N1CCc2ccccc2N(Cc2c(F)cc(OC(C)C)cc2F)C1=O` [Example 30, 1-[2,6-difluoro-4-(propan-2-yloxy)benzyl]-3-[2,4-dimethyl-5-(methylsulfonyl)phenyl]-1,3,4,5-tetrahydro-2H-1,3-benzodiazepin-2-one] are the same in Ki: 1.26 nM for the first, 1.26 nM for the second.

Compared with `COCc1cc(F)c(CN2C(=O)N(c3cnc(C)c(C(C)(F)F)c3)CCc3c(F)cccc32)c(F)c1` [Example 33, 3-[5-(1,1-difluoroethyl)-6-methylpyridin-3-yl]-1-[2,6-difluoro-4-(methoxymethyl)benzyl]-6-fluoro-1,3,4,5-tetrahydro-2H-1,3-benzodiazepin-2-one], `Cc1ncc(N2CCc3c(F)cccc3N(Cc3c(F)cc(Br)cc3F)C2=O)cc1OC(F)F` [Example 37, 1-(4-bromo-2,6-difluorobenzyl)-3-[5-(difluoromethoxy)-6-methylpyridin-3-yl]-6-fluoro-1,3,4,5-tetrahydro-2H-1,3-benzodiazepin-2-one] is 2.5-fold higher in Ki: 0.631 nM for the first, 1.58 nM for the second.
